Reference: PubChem BioAssay (NCI)
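Growth conditions: 96-well plates. Treatment: test compound, 48 hours, 5 concentrations. Analysis: linear interpolation between bracketing concentrations; unreached endpoints set to highest concentration. The concentration for full growth arrest is given as TGI.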

Tests used:
Experiment in all cases: NCI-60 cell line screen, 48 h
OVCAR-8 ovarian = system: OVCAR-8 ovarian
A498 renal = system: A498 renal
SK-MEL-2 melanoma = system: SK-MEL-2 melanoma
HOP-92 NSCLC = system: HOP-92 NSCLC
OVCAR-4 ovarian = system: OVCAR-4 ovarian
UACC-62 melanoma = system: UACC-62 melanoma
SK-OV-3 ovarian = system: SK-OV-3 ovarian
TK-10 renal = system: TK-10 renal
SNB-19 CNS = system: SNB-19 CNS
HT29 colon = system: HT29 colon
NCI-H226 lung = system: NCI-H226 lung
HCT-116 colon = system: HCT-116 colon
ACHN renal = system: ACHN renal
MDA-MB-435 = system: MDA-MB-435
SF-539 CNS = system: SF-539 CNS
PC-3 prostate = system: PC-3 prostate
SNB-75 CNS = system: SNB-75 CNS
BT-549 breast = system: BT-549 breast
NCI/ADR-RES ovarian = system: NCI/ADR-RES ovarian
M14 melanoma = system: M14 melanoma

| Structure (SMILES) | TGI (OVCAR-8 ovarian) [µM] | TGI (A498 renal) [µM] | TGI (SK-MEL-2 melanoma) [µM] | TGI (HOP-92 NSCLC) [µM] | TGI (OVCAR-4 ovarian) [µM] | TGI (UACC-62 melanoma) [µM] | TGI (SK-OV-3 ovarian) [µM] | TGI (TK-10 renal) [µM] | TGI (SNB-19 CNS) [µM] | TGI (HT29 colon) [µM] | TGI (NCI-H226 lung) [µM] | TGI (HCT-116 colon) [µM] | TGI (ACHN renal) [µM] | TGI (MDA-MB-435) [µM] | TGI (SF-539 CNS) [µM] | TGI (PC-3 prostate) [µM] | TGI (SNB-75 CNS) [µM] | TGI (BT-549 breast) [µM] | TGI (NCI/ADR-RES ovarian) [µM] | TGI (M14 melanoma) [µM] |
| --- | --- | --- | --- | --- | --- | --- | --- | --- | --- | --- | --- | --- | --- | --- | --- | --- | --- | --- | --- | --- |
| Cc1c(S(=O)(=O)c2ccccc2)c(N)n(CCN(C)C)c1C | > 100 | > 100 | > 100 | > 100 | > 100 | > 100 | > 100 | > 100 | > 100 | > 100 | > 100 | > 100 | > 100 | > 100 | > 100 | > 100 | > 100 | > 100 | > 100 | > 100 |
| Cc1cc(N(CCOS(C)(=O)=O)CCOS(C)(=O)=O)ccc1C=O | > 100 | 7.29 | 72.9 | 39 | 45.3 | 15.7 | – | > 100 | > 100 | > 100 | – | > 100 | – | 28.8 | 2.88 | > 100 | – | > 100 | 60.5 | 30.5 |
| CC1=NN(c2cccc(Cl)c2)C2(C1=C/C=C/c1ccccc1)C(Cl)C(=O)N2c1nc2ccccc2s1 (stereo not drawn) | 62.2 | > 66 | 40.1 | > 53.2 | > 100 | > 100 | > 95.1 | > 100 | > 100 | > 100 | > 100 | > 86.1 | > 42.3 | > 58.4 | > 86.1 | > 82.9 | – | > 100 | > 100 | > 91.2 |
| O=c1c2sc(=S)n(-c3ccc(F)cc3)c2ncn1/N=C/c1ccc(F)cc1F | 44.9 | 58.2 | 85.6 | 44 | 46.8 | > 100 | 53.7 | 40 | 62.6 | > 100 | 87 | > 100 | > 100 | > 100 | – | > 100 | 32.8 | 37.5 | > 100 | 67.4 |
| CCCCCCOc1ccc(C(=O)NOC)cc1 | > 100 | > 100 | > 100 | > 100 | > 100 | > 100 | > 100 | > 100 | > 100 | > 100 | > 100 | > 100 | > 100 | > 100 | > 100 | > 100 | > 100 | > 100 | > 100 | > 100 |
| CC1OC(OC2C(OC(=O)[C@]34CCC(C)(C)C[C@H]3C3=CC[C@@H]5[C@@]6(C)CC[C@H](OC7OC(C(=O)O)C(O)C(O)C7O)C(C)(C)[C@@H]6CC[C@@]5(C)[C@]3(C)C[C@H]4O)OCC(O)C2O)C(O)C(OC2OCC(O)(CO)C2O)C1OC1OCC(O)C(O)C1O (stereo partly drawn) | 33.4 | 3.47 | 20 | 26.7 | 22.7 | 31 | 29.3 | – | 23.8 | 12.1 | 28.3 | 19.8 | 17.4 | 20.7 | – | 21.3 | 31.8 | 17.3 | 27.9 | 23.3 |
| CN1CSC(=S)N(c2c3ccccc3nc3ccc(Br)cc23)C1 | > 51.2 | 27 | 29.3 | 32.7 | 25.7 | 27.4 | 31.1 | 21.9 | 26 | 23.1 | 37 | 15.7 | 19.5 | 26.5 | 25.7 | 26.3 | 23.7 | 32.2 | 30.9 | 26.9 |
| COc1cccc2c(=O)oc(-c3ccc(C(C)(C)C)cc3)nc12 | > 100 | > 100 | > 100 | > 100 | > 100 | > 100 | > 100 | > 100 | > 100 | > 100 | – | > 100 | > 100 | > 100 | > 100 | > 100 | > 100 | > 100 | > 100 | > 100 |
| COc1cccc2c1OC1(C=C2)Oc2ccccc2C(=O)N1C (stereo not drawn) | 54.4 | 57.4 | > 100 | 98.2 | > 100 | > 100 | 74.3 | > 100 | > 100 | > 100 | 95.9 | > 100 | > 100 | 59.8 | – | > 100 | 74.1 | 88.2 | 26.9 | > 100 |
| CCN(CC)CCn1c(=O)c2cccnc2n2c3c(=O)n(C)c(=O)n(C)c3nc12 | > 100 | – | > 100 | > 100 | > 100 | > 100 | > 100 | 57.4 | > 100 | > 100 | > 100 | > 100 | > 100 | > 100 | > 100 | > 100 | > 100 | > 100 | > 100 | > 100 |
| O=C(O)CCC(=O)OC1N=C(c2ccccc2Cl)c2cc([N+](=O)[O-])ccc2NC1=O (stereo not drawn) | > 100 | > 100 | > 100 | > 100 | > 100 | > 100 | > 100 | > 100 | > 100 | > 100 | – | 65.6 | > 100 | > 100 | – | > 100 | > 100 | > 100 | > 100 | > 100 |
| CC(=N/N=C/c1ccccn1)/C(C)=N/N=C(C)/C(C)=N/N=C(C)/C(C)=N/N=C(C)/C(C)=N\N=C\c1ccccn1 | > 100 | > 100 | > 100 | > 100 | > 100 | – | > 100 | > 100 | > 100 | > 100 | > 100 | > 100 | > 100 | > 100 | > 100 | > 100 | > 100 | > 100 | > 100 | > 100 |
| O=C(/C=C/c1ccc2c(c1)OCO2)CC(=O)C(=O)c1c[nH]c2ccccc12 | > 100 | > 100 | > 100 | > 100 | – | > 100 | > 100 | > 100 | > 100 | > 100 | – | > 100 | > 100 | 68.5 | > 100 | > 100 | 96.6 | > 100 | > 100 | > 100 |
| CCOC(=O)c1ccc(NCC#CCN2CCOCC2)cc1 | – | > 100 | > 100 | > 100 | > 100 | > 100 | > 100 | – | > 100 | > 100 | > 100 | > 100 | > 100 | > 100 | > 100 | > 100 | – | > 100 | > 100 | > 100 |
| CN(C)C1(N(C)C)Oc2c(c(=O)n(C)c(=O)n2C)C(c2ccc(Br)cc2)C1(F)F (stereo not drawn) | – | > 100 | > 100 | > 100 | > 100 | > 100 | > 100 | > 100 | > 100 | – | > 100 | > 100 | > 100 | > 100 | – | > 100 | > 100 | > 100 | > 100 | > 100 |
| NC1=NCC(CN2CCOCC2)O1 (stereo not drawn) | > 100 | > 100 | > 100 | > 100 | > 100 | > 100 | > 100 | > 100 | > 100 | > 100 | – | > 100 | > 100 | > 100 | > 100 | > 100 | > 100 | > 100 | > 100 | > 100 |
| COc1ccc(-c2nc(SCC(=O)N/N=C/c3ccc(N(C)C)cc3)[nH]c2-c2ccc(OC)cc2)cc1 | > 100 | > 100 | > 100 | > 100 | > 100 | > 100 | > 100 | > 100 | > 100 | > 100 | – | > 100 | > 100 | > 100 | > 100 | > 100 | > 100 | > 100 | > 100 | > 100 |
| O=[N+]([O-])c1ccc(Oc2c(Cl)cc(S(=O)(=O)/N=C(\NO)Nc3ccc(Cl)cc3)cc2Cl)cc1 | 27.5 | 23.3 | 24.1 | 11.1 | 17.3 | 24.1 | 31.2 | 23.2 | 29.2 | 27.9 | 35.3 | 22.6 | 23.8 | 28 | 26.7 | 22.2 | – | 25 | 32.2 | 25.6 |
| COc1ccc2c(c1)/C(=C\c1c(Cl)nc3sc(C)cn13)C(=O)N2 | 15.1 | 16.6 | 8.41 | 23.1 | – | 16.4 | 14.6 | 19.1 | 13.4 | 12.7 | – | 14.1 | 20.1 | 1.43 | 6.76 | 12.4 | 17.1 | 20.5 | 17.7 | 8.89 |
| O=C(O)c1ccccc1CC1Cc2ccccc2C1=O (stereo not drawn) | > 100 | – | > 100 | > 100 | > 100 | > 100 | > 100 | > 100 | > 100 | > 100 | > 100 | > 100 | > 100 | > 100 | > 100 | > 100 | > 100 | > 100 | > 100 | > 100 |
| COc1ccc(NC(=O)CC(=O)N2N=C(N3c4ccccc4Sc4ccccc43)CC2c2ccccc2)cc1 (stereo not drawn) | > 100 | – | > 100 | > 100 | > 100 | > 100 | > 100 | > 100 | > 100 | > 100 | > 100 | > 100 | > 100 | > 100 | > 100 | > 100 | > 100 | > 100 | > 100 | > 100 |
| CCN(CCCN(CC)C(=O)Nc1c(C)cccc1C)C(=O)Nc1c(C)cccc1C | > 100 | > 100 | > 100 | > 100 | > 100 | > 100 | > 100 | > 100 | > 100 | > 100 | > 100 | > 100 | > 100 | > 100 | – | > 100 | > 100 | > 100 | > 100 | > 100 |
| CCOC(=O)C1=C(C)C2C=C(c3cccs3)CC(c3ccc(Cl)cc3)=C2OC1=O (stereo not drawn) | > 100 | > 100 | > 100 | > 100 | > 100 | > 100 | > 100 | > 100 | > 100 | > 100 | > 100 | 69.2 | > 100 | > 100 | – | > 100 | > 100 | > 100 | > 100 | > 100 |
| CS(=O)c1ncc2c(n1)-c1ccccc1OC2 (stereo not drawn) | > 100 | – | > 100 | > 100 | > 100 | > 100 | > 100 | > 100 | > 100 | > 100 | > 100 | > 100 | > 100 | > 100 | > 100 | > 100 | > 100 | > 100 | > 100 | > 100 |
